Data published in paper PMC11927960, “Multiparameter ranking of carbazoles for anti-trypanosome lead discovery” (Frontiers in drug discovery, 2024).

Legend:
[1] = Brain accumulation (brain to plasma concentration ratio); conditions: Swiss Webster, mouse
Description: The plasma concentration and tissue distribution of drugs were determined by Absorption Systems. […] Blood and brain samples were obtained at 1, 2, 4, and 6 h post-dosing, and plasma and brain concentrations of the drug were determined using LC-MS/MS. Stock standards for calibration were prepared in a matrix comprising equal volumes of water and mouse blood containing K2-EDTA as an anticoagulant. Working solutions were prepared in 50:50 acetonitrile–water and added to the matrix to final concentrations of 1,000, 500, 100, 50.0, 10.0, 5.00, 1.00, and 0.500 ng/mL for all compounds. Pharmacokinetic parameters were determined using Phoenix WinNonlin (v8.0) software with sparse sampling. Maximum plasma concentration (Cmax) and the time to reach maximum plasma concentration (tmax) were determined from the four data points. The area under the time concentration curve (AUClast) was calculated using the linear trapezoidal rule with calculation to a 6-h data point. Plasma half-life (t1/2) was calculated from 0.693/slope of the terminal elimination phase. Samples below the limit of detection (0.500 ng/mL) were treated as 0. […]
or CBL0187, respectively. Blood and brain samples were obtained at 1, 2, 4, and 6 h post-dosing, and plasma and brain concentrations of the carbazoles were determined using LC-MS/MS. (A) Brain tissue concentrations of curaxins at different time points (B) Ratios of […]
male and female Swiss-wester mice. […]

[2] = test system: DNA synthesis in Trypanosoma brucei; assay: DNA synthesis (EdU incorporation); type: cell-based; conditions: for Effect on EdU incorporation into nuclei (DNA synthesis): DTC25 (CBL0174 48 nM, CBL0187 54 nM), vs DMSO, p < 0.0001; for DNA Synthesis affected: DTC25, Table S3
Description: Incorporated EdU was tracked by clicking with azide-Alexa Fluor-488 and observed with a fluorescence microscope. For quantitation, at least 100 cells were analyzed from each sample. (A) Representative images of the EdU-positive signal (green) with DAPI (blue) in 0.1% DMSO (top), CBL0174-treated (middle), or CBL0187-treated cells (bottom). (B) Representative images for quantitation of nuclear EdU brightness (nEdU). CellProfiler 3.1.9 was used to extract the EdU fluorescence signal over the DAPI area. Lines represent the median with error bars denoting standard deviation (SD) from three biological replicates. The statistical significance of the distribution of EdU brightness in different treatment groups was analyzed with a Mann–Whitney test.
Bloodstream trypanosomes (5 × 10^5 cells/mL) pretreated with DTC25 concentrations of CBL0174 or CBL0187 in HMI-9 medium (for 15 min) were incubated with 5-ethynyl-2′-deoxyuridine (EdU) (Abcam) (300 μM) for 1 h. Cells were prepared as per [Sullenberger et al. (2017)]. Images of trypanosomes were captured using a DeltaVision II Olympus inverted microscope processed with Fiji (ImageJ, v 2.0.0) and analyzed using CellProfiler 3.1.9 ([Sanz-Rodriguez et al., 2022]).

[3] = test system: T. brucei AnTat1.1; assay: Treatment of chronic HAT in a mouse model of disease; type: in vivo, Trypanosoma brucei in Swiss-Webster mice; conditions: for Mean parasitemia on day 7 post-infection: CBL0174 60 mg/kg, CBL0187 50 mg/kg orally from day 3, vehicle 1.64 × 10^7; for Outcome in chronic HAT mouse model: oral, CBL0137 40 mg/kg days 2-5, 8-11, 14, 15, CBL0174 60 mg/kg and CBL0187 50 mg/kg days 3-9
Description: Mice were each infected intraperitoneally with Trypanosoma brucei AnTat1.1 (10^4). […] (B) CBL0174 and CBL0187: Groups V, B, and D were given vehicle, CBL0174 (60 mg/kg) and CBL0187 (50 mg/kg), respectively, from day 3 through 9. Different shapes represent individual mice, and horizontal lines in each group denote mean parasitemia determined with a hemocytometer. UND = undetectable; DPI = days post-infection.
Treatment of chronic HAT in a mouse model of disease
Drug efficacy studies in a mouse model of HAT were conducted following recommendations in the “Guide for the Care and Use of Laboratory Animals” of the National Institutes of Health. The protocol was approved by the Institutional Animal Care and Use Committee (IACUC) at the University of Georgia. After the study, the mice were euthanized by CO2 asphyxiation followed by incision to form a bilateral pneumothorax, as approved by the American Veterinary Association.
Female Swiss-Webster mice (20–25 g; 8–10 weeks old) were acclimatized for 1 week before the commencement of the study. […] Parasites in blood collected from a tail venipuncture and diluted 8-fold in RBC lysis buffer (Qiagen) were monitored with a hemocytometer (Neubauer Bright-line). During the study, mice with parasitemia above 10^8 trypanosomes/mL were euthanized for humane reasons. Mice without parasitemia for 90 days were considered cured.

[4] = test system: T. brucei Lister427; assay: Delayed trypanocidal assay (6 h exposure, wash-off); type: cell-based, Trypanosoma brucei; conditions: starting cell density 1 × 10^5/mL instead of 5 × 10^5/mL
[5] = test system: protein synthesis in Trypanosoma brucei; assay: Protein synthesis (HPG incorporation); type: cell-based; conditions: for Protein Synthesis affected: DTC50 as printed in Table S3; for Effect on protein synthesis: DTC90; for Residual Translation: DTC90 of curaxin 15 min, then 60 min HPG, 1 minus inhibition vs DMSO
Description: FIGURE 3 Effect of curaxins on protein synthesis in Trypanosoma brucei: T. b. brucei (5 × 10^5/mL) was treated with DMSO (D: 0.1%), DTC90 of CBL0174 ([…]), or CBL0187 (600 nM) for 15 min, followed by 60-min incubation with L-Homopropargylglycine (HPG; 4 μM). Incorporated HPG was clicked to azide-Alexa Fluor-488. […] (A) Proteins were transferred to the PVDF membrane and stained for total protein (using LI-COR® Revert™ 700 Total Protein Stain). (B) The membrane was blocked with Intercept® (PBS) blocking buffer and reacted with azide-PEG3-biotin conjugate that was detected with Streptavidin IRDye® 800CW (1: 2500 dilution). (C) Quantitation of HPG signal normalized to total protein loaded per lane. Statistical significance of differences in mean total HPG incorporation (normalized to total protein) was determined with Student’s t-test.
Mid-logarithmic phase trypanosomes were rinsed and resuspended (5×10^5 cells/mL) in methionine-free RPMI supplemented with 10% fetal bovine serum (FBS). Cells were treated with DTC25 or DTC90 concentrations of CBL0174 or CBL0187 for 15 min, followed by 1-h incubation with 4 μM (final concentration) L-Homopropargylglycine (HPG) (Cayman Chemical). Cells were washed with PBS-G (PBS containing 10 mM glucose), pelleted, and resuspended (~5 × 10^6 cells) in 50 μL of permeabilization buffer (50 mM HEPES pH 7.4, 0.025% NP-40) on ice for 30 min. The pellet was mixed with 50 μL “Click-iT reaction” cocktail (20 mM Tris buffer, pH 7.4, 5 mM CuSO4, 300 mM ascorbic acid, 140 mM NaCl, and 17.5 μM azide-PEG-biotin) at room temperature for 1 h. […] HPG-labeled proteins were detected with Streptavidin IRDye® 800CW (1: 2500) and visualized on a Li-Cor® Odyssey CLx near-infrared fluorescence imaging system ([Sanz-Rodriguez et al., 2022]).

Row | SMILES | Kp ([1]; brain, oral) | Kp ([1]; in vivo, po) | Effect on EdU incorporation into nuclei (DNA synthesis) [2] | DNA Synthesis affected [2] | Mean parasitemia on day 7 post-infection [3] | Outcome in chronic HAT mouse model [3] | DTC25 T. brucei Lister427 (value in parenthesis) [4] [nM] | DTC50 T. brucei Lister427 (value in parenthesis) [4] [nM] | DTC90 T. brucei Lister427 (value in parenthesis) [4] [nM] | Protein Synthesis affected [5] | Effect on protein synthesis [5] | Residual Translation [5]
1 | CC(=O)c1cc2c3cc(C(C)=O)c(O)cc3n(CCCN(C)C)c2cc1O [CBL0174, 1-[6-acetyl-9-[3-(dimethylamino)propyl]-2,7-dihydroxy-carbazol-3-yl]ethanone] | 26.9 | 27.9 | inhibited EdU incorporation into nuclei | Yes | 8.22 × 10^7 ± 6.64 × 10^6 trypanosomes/mL | failed to control parasitemia | 60 | 122 | 513 | No | did not prevent mRNA translation | 0.94
2 | CC(=O)c1cc2c3cc(C(C)=O)c(O)cc3n(CCNC(C)C)c2cc1O [CBL0187, 1-[6-acetyl-2,7-dihydroxy-9-[2-(isopropylamino)ethyl]carbazol-3-yl]ethanone] | 15.9 | – | inhibited EdU incorporation into nuclei | Yes | 8.99 × 10^7 ± 2.43 × 10^7 trypanosomes/mL | failed to control parasitemia | 41 | 98 | 592 | No | inhibited protein synthesis | 0.72
